Measurements reported in paper PMC9022420 (Scientific Reports, 2022).
Several values for one entry are separate records, joined by “and”; a condition that tells them apart may be missing. Equal values may be shown once.

Key:
[1] = test system: E. coli BL21(DE3); experiment: Photodynamic inactivation of E. coli (CFU counting); format: cell-based
Protocol: After an overnight aerobic culture in LB broth at 37 °C with shaking at 225 rpm, the resulting E. coli were centrifuged at 2,500 rpm for 10 min. The pellet was resuspended in PBS (Sigma, 1x, pH 7.4) to an OD600 value of 0.6 (~ 1 × 10^8 bacteria per ml). […] Aliquots of negative controls (0.5% DMSO in PBS; PBS only) and 100 μM flavin-bacteria samples were covered in foil to remain in dark, while all samples were plated onto a 96-well plate and exposed to white LED irradiation (1 × 10^5 lx) for 15 min. After 15 min of irradiation or darkness, each sample was serially diluted to its respective, appropriate dilution and plated onto an LB agar plate with 50 μg/mL kanamycin. Plates were incubated overnight at 37 °C in the dark. Survival of bacteria was determined by counting colony forming units (CFUs) the next day.
For time point data, aliquots of 100 μM flavin-bacteria solutions were taken at 5-min increments of irradiation (0, 5, 10, and 15 min) and evaluated similarly as above. Time point experiment with one-minute increments, between 0 and 5 min, were conducted for 100 μM F4-bacteria samples.

[2] = Flavin photostability in PBS under white LED irradiation; format: physicochemical; details: 100 µM in PBS, white LED 1 × 10^5 lx, 30 min irradiation
From the text: After successful synthesis and initial characterisation, we monitored the photostability of the compounds in PBS (1x, pH 7.4) which was used for PDI assays as distilled or ultrapure water destabilises bacterial cells and coronaviruses through osmotic pressures[37],[38], thereby augmenting inactivation results. […] This yields lumichrome as the major degradation product which can only act as a PS under UV-irradiation[40]. […] However, it appears that guanidino substitution in our case improves the photostability.
Figure S4: (A) Flavin photostability (100 µM) in PBS (0.1% DMSO) irradiated with 1x105 lx (35 mW/cm2) where A
= Abs at 450 nm and A0 = Abs at 450 nm at 0 min.
photostability. Experiments were performed using a quartz cuvette and measured using an Agilent Cary 300
(1 picture or pasted object on this page, not shown here)

[3] = test system: pDNA (pUC18); experiment: pDNA photocleavage, agarose gel electrophoresis; format: biochemical; details: 10 µM flavin, 15 min white LED, PBS 0.1% DMSO
Protocol: A 20 µL aliquot was taken after 15 min of white LED irradiation (1 × 10^5 lx). Prior to loading, 2 µL of 6X Orange-G loading dye in glycerol were added to the aliquot and mixed vigorously. The gel was electrophoresed at 80 V for 35 min with 1% agarose gels in 1X Tris–acetate-EDTA (TAE) buffer. Gels were then imaged in a Syngene G:BOX Gel Documentation System and band % quantification was performed using ImageJ Gel Analyzer.

[4] = 10 µM flavin, 15 min irradiation
[5] = 100 µM flavin, 5 min irradiation (10.5 J/cm^2)
[6] = 100 µM flavin, 10 min irradiation

| Structure (SMILES) | E. coli log10 reduction of CFUs [1, 4] [log10] | E. coli log10 reduction of CFUs [1, 5] [log10] | E. coli log10 reduction of CFUs [1, 6] [log10] | photodecomposition / degradation [2] | E. coli reduction of bacteria ([1]; 100 µM flavin, 5 min irradiation) [%] | % NC (nicked coiled pDNA after photocleavage) [3] [%] | E. coli log10 reduction of CFUs ([1]; 100 µM flavin, 15 min irradiation) [log10] | E. coli reduction of bacteria ([1]; 100 µM flavin, 1 min irradiation) [%] | E. coli log10 reduction of CFUs ([1]; 100 µM flavin, 1 min irradiation (2.10 J/cm^2), calculated vs t0 = 7.9) | bacterial inactivation, log10 reduction ([1]; 15 min irradiation at 11 μM) [log10] |
| --- | --- | --- | --- | --- | --- | --- | --- | --- | --- | --- |
| CCCCCCCCn1c(=O)nc2n(CCN)c3cc(C)c(C)cc3nc-2c1=O [Flavin F1] | 0.2 | 0.1 | 0.1 | around 40% |  |  |  |  |  |  |
| CCCCCCCCn1c(=O)nc2n(CCNC(=N)N)c3cc(C)c(C)cc3nc-2c1=O [Flavin F2] |  | 3.4 | 5.9 | approximately 10% | > 99.9 | 39 |  |  |  |  |
| CCCCCCCCn1c(=O)nc2n(CCN)c3cc(Br)c(Br)cc3nc-2c1=O [Flavin F3] | 0.4 | 1.3 | 1.7 | ~60% |  |  | 1.8 |  |  |  |
| CCCCCCCCn1c(=O)nc2n(CCNC(=N)N)c3cc(Br)c(Br)cc3nc-2c1=O [Flavin F4] | 2.8 |  | 8.7 | ~30% |  | 21 |  | > 99.99 | 4.1 log10 and > 4 log10 | > 3 |
